From ChEMBL document CHEMBL4513161, “CO-ADD screening of MMV (CH) - Pandemic Response Box” (2021)
≈ marks a conversion by molar mass, not a printed value. Where a name gives a salt, the structure may show the parent alone.

Tests used:
[1] = tested on: HEK293; assay: cells; format: functional, Homo sapiens, ATCC CRL1573; settings: Homo sapiens, ATCC CRL1573, HEK293; ASSAY_TEST Inhibition of Cell Viability; detection method Resazurin; Fluorescence (ex560/em590); MEDIA DMEM with 10% FBS; plate type 384well; TC; CORNING #3712; time 18 hr; read-out: CC50
[2] = tested on: Pseudomonas aeruginosa; assay: Antibacterial activity against Pseudomonas aeruginosa PAO397 [PAO1 d(mexAB-oprM) d(mexCD-oprJ) d(mexEF-oprN) d(mexJKL) d(mexXY) d(opmH)] (CO-ADD:GN_211); MIC in CAMBH media using NBS plates, by OD(600); format: functional; settings: ASSAY_TEST Inhibition of Bacterial Growth, detection method Absorption (OD600), MEDIA CAMHB, plate type 384well, CORNING #3640, time 18 hr
[3] = tested on: Cryptococcus neoformans
Description: Antifungal activity against Cryptococcus neoformans H99 ATCC 208821 (CO-ADD:FG_002); MIC in YNB media using NBS plates, by Resazurin OD(600-570)

[4] = tested on: Staphylococcus aureus; assay: microbe, parasite or virus in culture; settings: ATCC 43300, 18 h, ASSAY_TEST Inhibition of Bacterial Growth, detection method Absorption (OD600), MEDIA CAMHB, plate type 384well, NBS, CORNING #3640
Description: Antibacterial activity against Staphylococcus aureus MRSA ATCC 43300 (CO-ADD:GP_020); MIC in CAMBH media, using NBS plates, by OD(600)

[5] = tested on: Escherichia coli; assay: microbe, parasite or virus in culture; settings: ATCC 25922, 18 h, ASSAY_TEST Inhibition of Bacterial Growth, detection method Absorption (OD600), MEDIA CAMHB, plate type 384well, NBS, CORNING #3640
Description: Antibacterial activity against Escherichia coli ATCC 25922 (CO-ADD:GN_001); MIC in CAMBH media using NBS plates, by OD(600)

[6] = tested on: Klebsiella pneumoniae; assay: microbe, parasite or virus in culture; settings: ATCC 700603, 18 h, ASSAY_TEST Inhibition of Bacterial Growth, detection method Absorption (OD600), MEDIA CAMHB, plate type 384well, NBS, CORNING #3640
Description: Antibacterial activity against Klebsiella pneumoniae MDR ATCC 70063 (CO-ADD:GN_003); MIC in CAMBH media using NBS plates, by OD(600)

[7] = tested on: Pseudomonas aeruginosa; assay: microbe, parasite or virus in culture; settings: ATCC 27853, 18 h, ASSAY_TEST Inhibition of Bacterial Growth, detection method Absorption (OD600), MEDIA CAMHB, plate type 384well, NBS, CORNING #3640
Description: Antibacterial activity against Pseudomonas aeruginosa ATCC 27853 (CO-ADD:GN_042); MIC in CAMBH media using NBS plates, by OD(600)

[8] = tested on: Acinetobacter baumannii; assay: microbe, parasite or virus in culture; settings: ATCC 19606, 18 h, ASSAY_TEST Inhibition of Bacterial Growth, detection method Absorption (OD600), MEDIA CAMHB, plate type 384well, NBS, CORNING #3640
Description: Antibacterial activity against Acinetobacter baumannii ATCC 19606 (CO-ADD:GN_034); MIC in CAMBH media using NBS plates, by OD600

[9] = tested on: Candida albicans; assay: microbe, parasite or virus in culture; settings: ATCC 90028, ASSAY_TEST Inhibition of Fungal Growth, detection method Absorption (OD530), plate type 384well, NBS, CORNING #3640
Description: Antifungal activity against Candida albicans ATCC 90028 (CO-ADD:FG_001); MIC in YNB media using NBS plates, by OD630

Compound | CC50 [1] [µM] | MIC [2] [µM] | MIC [3] [µM] | MIC [4] [µM] | MIC [5] [µM] | MIC [6] [µM] | MIC [7] [µM] | MIC [8] [µM] | MIC [9] [µM]
CCC[C@@H]1C[C@@H](C(=O)N[C@@H]([C@H]2O[C@H](SC)[C@H](O)[C@@H](O)[C@H]2O)[C@H](C)Cl)N(C)C1 [CLINDAMYCIN HYDROCHLORIDE] | > 20 | 20 | > 20 | > 20 | > 20 | > 20 | > 20 | > 20 | > 20
O=C(Nc1nnc(-c2ccccc2)o1)c1ccc(F)cc1 | > 20 | > 20 | 20 (≈ 5.67 µg/mL) | 20 (≈ 5.67 µg/mL) | > 20 | > 20 | > 20 | > 20 | > 20
CCc1ccccc1OCCN1CCCCCC1 | > 20 | > 20 | > 20 | > 20 | > 20 | > 20 | > 20 | > 20 | > 20
CC(C)(C)c1ccc(OCCn2nc(C(=O)O)c3ccccc3c2=O)cc1 | > 20 | > 20 | > 20 | > 20 | > 20 | > 20 | > 20 | > 20 | > 20
CC(C)CCN1C(=O)C(C2=NS(=O)(=O)c3cc(NS(C)(=O)=O)ccc3N2)=C(O)[C@@H]2[C@H]3CC[C@H](C3)[C@@H]21 | > 20 | > 20 | > 20 | > 20 | > 20 | > 20 | > 20 | > 20 | > 20
O=C(CCc1ccc2c(c1)OCO2)NCc1ccc(-c2ccccc2F)cc1 | > 20 | > 20 | > 20 | > 20 | > 20 | > 20 | > 20 | > 20 | > 20
N#C/C(=C1/SC[C@H](c2ccc(Cl)cc2Cl)S1)n1ccnc1 | > 20 | > 20 | 0.625 (≈ 0.221 µg/mL) | > 20 | > 20 | > 20 | > 20 | > 20 | 0.312 (≈ 0.111 µg/mL)
CC1CCc2c(N3CCC(O)CC3)c(F)cc3c(=O)c(C(=O)O)cn1c23 (stereo unspecified) [NADIFLOXACIN] | > 20 | ≤ 0.156 | > 20 | ≤ 0.156 | 0.625 (≈ 0.225 µg/mL) | 20 (≈ 7.21 µg/mL) | 1.25 (≈ 0.45 µg/mL) | 20 (≈ 7.21 µg/mL) | > 20
O=C(O)c1ccccc1Sc1ncnc2sc3c(c12)CCC3 | > 20 | > 20 | > 20 | > 20 | > 20 | > 20 | > 20 | > 20 | > 20
CCc1nc(N)nc(N)c1C#CCc1ccccc1 | > 20 | > 20 | > 20 | 20 (≈ 5.05 µg/mL) | > 20 | > 20 | > 20 | > 20 | > 20
O=C(O)c1cc(-c2ccc(Br)cc2)nc2ccc(Cl)cc12 | > 20 | > 20 | > 20 | > 20 | > 20 | > 20 | > 20 | > 20 | > 20
CC[C@H](NC(=O)[C@H](C)NC)C(=O)N1C[C@@H](O)C[C@H]1Cc1c(-c2[nH]c3cc(F)ccc3c2C[C@@H]2C[C@H](O)CN2C(=O)[C@H](CC)NC(=O)[C@H](C)NC)[nH]c2cc(F)ccc12 [BIRINAPANT] | > 20 | > 20 | > 20 | > 20 | > 20 | > 20 | > 20 | > 20 | > 20
CCOCc1nc2c(N)nc3ccccc3c2n1CC(C)(C)O [RESIQUIMOD] | > 20 | > 20 | > 20 | > 20 | > 20 | > 20 | > 20 | > 20 | > 20
Cc1ccc(N2CCC(CCOc3ccc(S(C)(=O)=O)cc3)CC2)nn1 | > 20 | > 20 | > 20 | > 20 | > 20 | > 20 | > 20 | > 20 | > 20
CC(C)(C)OC(=O)NCc1ccc(C(=O)N[C@H]2CCOC2=O)cc1 | > 20 | > 20 | > 20 | > 20 | > 20 | > 20 | > 20 | > 20 | > 20
Cc1c(OCC(F)(F)F)ccnc1C[S+]([O-])c1nc2ccccc2[nH]1 (stereo unspecified) [LANSOPRAZOLE] | > 20 | > 20 | > 20 | > 20 | > 20 | > 20 | > 20 | > 20 | > 20
CC(C)(C)c1cc(C(=O)/C(C#N)=N/Nc2cccc(Cl)c2)no1 | > 20 | > 20 | > 20 | > 20 | > 20 | > 20 | > 20 | > 20 | > 20
Oc1ccc2[nH]c(-c3ccccc3)nc2c1 | > 20 | > 20 | > 20 | > 20 | > 20 | > 20 | > 20 | > 20 | > 20
FC(F)(F)c1cc(C(F)(F)F)c2ccc3nc(-c4nnco4)cn3c2n1 | > 20 | > 20 | > 20 | > 20 | > 20 | > 20 | > 20 | > 20 | > 20
Cc1cc(Nc2ccc(F)cc2)nc(SCc2nc3ccccc3[nH]2)n1 | > 20 | > 20 | > 20 | > 20 | > 20 | > 20 | > 20 | > 20 | > 20
O=C(CSc1nnc(Br)n1-c1ccc(C2CC2)c2ccccc12)Nc1ccc(C(=O)O)cc1Cl | > 20 | > 20 | > 20 | > 20 | > 20 | > 20 | > 20 | > 20 | > 20
O=C(/C=C\n1cnc(-c2cc(C(F)(F)F)cc(C(F)(F)F)c2)n1)NNc1ccccn1 [VERDINEXOR] | > 20 | > 20 | > 20 | > 20 | > 20 | > 20 | > 20 | > 20 | > 20
O=C1c2cccc3cccc(c23)C(=O)N1CC1CO1 (stereo unspecified) | 4.49 | > 20 | > 20 | 20 (≈ 5.07 µg/mL) | > 20 | > 20 | > 20 | > 20 | > 20
CCc1nc2ccc(Cl)cn2c1C(=O)NCc1ccc(N2CCC(c3ccc(OC(F)(F)F)cc3)CC2)cc1 [TELACEBEC] | > 20 | > 20 | > 20 | > 20 | > 20 | > 20 | > 20 | > 20 | > 20
